Test results as given in US20170304329A1 (THE UNIVERSITY OF KANSAS, priority 2014, published 2017).

Assays:
[1] = system: T24 cells transfected with Notch-1 intracellular domain (NICD); test: Ectopic NICD expression and cell proliferation; assay type: cell-based, human; settings: CPX 4 μM
Procedure: We determined whether ectopic expression of NICD reversed ciclopirox (CPX) mediated inhibition of cell proliferation. For this study, T24 Cells were transfected with plasmid EF.hICN1.CMV.GFP encoding the Notch-1 intracellular domain (NICD) or the empty vector EF.v-CMV.GFP (Addgene Inc.) and subsequently treated with CPX (4 μM). Cell proliferation was detected using hexoaminidase assay.

[2] = system: T24 bladder cancer cells; test: Annexin V-FITC apoptosis labeling; assay type: cell-based, human; settings: 4 μM, up to 48 h
Procedure: It was determined that CPX induces apoptosis. We next determined whether the compounds could induce cell death through the apoptotic pathway. For this we treated T24 bladder cancer cells with CPX (4 μM) and labeled the cells with FITC conjugated Annexin V to detect apoptotic cells. […] Cells were incubated with the indicated dose of compound for up to 48 h.

[3] = system: T24 cells; test: Proliferation with predicted CPX urine concentration in 20% normal urine; assay type: cell-based, human; settings: 3 days treatment, 50 uM-1.5625 uM CPX in 20% normal urine, 72 h
Procedure: We next determined the effect of CPX in normal urine on T24 and 253JBV cells upon everyday treatment for up to 72 h (3 days treatment). The idea behind this experiment is to see the effect of predicted concentration of CPX in human urine on bladder cancer cells as the patient's bladder will be exposed every day to the predicted concentration of CPX. Three sets of plates were used, one plate each for one day treatment, two days treatment and three days treatment of CPX (50-1.5625 uM). T24 and 253JBV cells were incubated with CPX in normal urine (20% normal urine in complete RPMI media). […] The effect of CPX was determined by hexosaminidase assay beyond the 12 hours of varying CPX concentration (25 h, 48 h, and 72 h). In two days treatment, the cells are exposed to 50 uM-1.5625 uM for two days and the effect was determined by hexosaminidase assay at 48 h and 72 h time points. In three days treatment, the cells are exposed to 50 uM-1.5625 uM for three days and the effect was determined by hexosaminidase assay at 72 h time point.
T24 Cells were incubated with CPX in normal urine (20% normal urine in complete RPMI media). […] The effect of CPX was determined by hexosaminidase assay beyond the 12 hours of varying CPX concentration (25 h, 48 h, and 72 h). […]

[4] = system: T24 bladder cancer cell spheroids; test: Spheroid (bladdosphere) assay; assay type: cell-based, human; settings: I generation, 7 days
Text: (§1) The spheroid assay, which is sometimes also called the 3D assay was developed as a method to propagate epithelial stem cells in vitro, and is now a standard surrogate reporter for stem cell activity. The assay (in this case called bladdosphere assay) is based on the hypothesis that the unique, undifferentiated cells present in bladder cancers will survive in suspension culture, while the other cells will die by anoikis. Therefore, we characterized the effect of ciclopirox (CPX) in bladdosphere assay. Here, cancer cells are plated in ultra-low binding plates and the resulting spheroids are believed to represent growth from stem cells.
(§2) For formation of spheroids, cells were cultured in RPMI 1640 (Mediatech) supplemented with 20 ng/mL bFGF (Invitrogen) 10 mL per 500 mL of 50×B27 supplement (Invitrogen) EGF 20 ng/mL (Invitrogen) and antibiotic and antimycotic solution. Cells were seeded at low densities (5000 cells/mL) in 6-well low adhesion plates. The cells were treated with increasing concentrations of CPX (0.5×, 1×, and 2× of IC50 calculated from cell proliferation assay—2 μM for 253JBV and 4 μM for T24). After 7 days the spheroids were photographed (I generation). Control spheroids and spheroids treated with CPX (1×IC50) were collected, trypsinized and re-plated for the secondary spheroid growth (II generation), followed by tertiary spheroid development (III generation).

[5] = system: 253JBV bladder cancer cell spheroids; test: Spheroid (bladdosphere) assay; assay type: cell-based, human; settings: I generation, 7 days
Text: as §1, §2

[6] = system: Notch1 signaling and γ-secretase complex proteins in T24 cells; test: Western blot of Notch signaling pathway proteins; assay type: cell-based, human; settings: bladder cancer cell lines (T24)
Procedure: Western blot studies were performed to detect the effect of CPX on the expression of proteins involved in Notch signaling pathway. Cell lysates were subjected to polyacrylamide gel electrophoresis and blotted onto Immobilon polyvinylidene difluoride membranes (Millipore, Bedford, Mass., USA). Antibodies were purchased from Cell Signaling Technology (Beverly, Mass., USA), Abcam Inc. (Cambridge, Mass., USA) and Santa Cruz Biotechnology Inc. (Santa Cruz, Calif., USA) and specific proteins were detected by the enhanced chemiluminescence system (GE Healthcare, Piscataway, N.J., USA).

[7] = system: T24 cells; test: Flow cytometry-based cell cycle analysis; parameters: species or system human
Procedure: Flow cytometry-based cell cycle analysis studies were conducted to determine the effect of ciclopirox (CPX) on cell cycle progression in T24 cells (data not shown). […] At 1×IC50 and 2×IC50 concentrations, CPX arrest cells at G0/G1 phase. Cells were treated with CPX and a flow cytometer based analysis was performed.

Cc1cc(C2CCCCC2)n(O)c(=O)c1 [CPX, 6-cyclohexyl-1-hydroxy-4-methylpyridin-2(1H)-one]
rescue of proliferation by NICD [1]: Ectopic expression of NICD reversed CPX mediated inhibition of cell proliferation
cell death (Annexin V-FITC labeled cells) [2]: significant increase in cell death
maximum inhibition of proliferation [3]: 20%
spheroid formation [4]: significant decrease in size and number of spheroids
spheroid formation [5]: significant decrease in size and number of spheroids
expression of Notch pathway proteins [6]: significantly inhibited the expression of the γ-secretase complex proteins
cell cycle progression [7]: induces S-phase cell cycle arrest
